Experimental data reported in US12115193B2, “Methods of using RARγ agonists for cancer treatment” (Io Therapeutics, Inc., priority 2021, dated 2024).

Tests used:
EMT6 cells [1] = experiment: EMT6 triple negative breast cancer model, various dosages (Example 5); format: in vivo, mouse
Text: The EMT6 triple negative breast cancer model, essentially as described above, was used to assess the effects of increased dosages of GA2E. The mice were orally administered 10 (n=10), 25 (n=10), or 50 (n=11) mg/kg of GA2E, or vehicle control (n=10) daily for 17 days. […] Two mice in the vehicle control group were terminated at Day 12 with tumors >1500 mm^3.

[2] = tested on: Lewis lung carcinoma (LLC) cells; experiment: Lewis lung carcinoma in vitro culture viability, Cell Titer Glo Assay; format: cell-based, mouse
Protocol: Lewis lung carcinoma (LLC) cells were cultured in vitro the presence of a multiple concentrations of the RARγ agonists GA1E, GA2E, and GA3Ep and viability assessed by the Cell Titer Glo Assay®.

EMT6 cells [3] = experiment: EMT6 syngeneic mouse model of triple negative breast cancer (Example 3); format: in vivo; conditions: 21 daily oral doses 10 mg/kg; at the end of the study
Protocol: The RARγ agonists tazarotenic acid and GA2E were evaluated in the EMT6 syngeneic mouse model of breast cancer. 5×10^5 EMT6 cells were injected into the mammary fat pad of immunocompetent female Balb/c mice. When the tumors reached an average volume of 50-150 mm^3, mice were matched by tumor size into control or treatment groups (n=10-11).
The mice were treated with 21 daily oral doses 10 mg/kg of 1 mg/ml tazarotenic acid or GA2E, or vehicle control, starting on Day 0. Tumor volume was measured, and the mice weighed, on days 0, 1, 3, 6, 8, 10, 13, 15, 17, 20, and 21.

TIL in JIMT-1 tumors = experiment: Flow cytometry of JIMT-1 tumors from NSG-B2M mice, Day 26; format: in vivo, human
Text: The mice were sacrificed on Day 26 of the study and the tumors collected and analyzed by flow cytometry. Statistical analysis was by ordinary one-way ANOVA with Tukey's test for significance comparison between groups. Gates were set to identify single cells by forward light scatter, live cells as single cells based on side scatter and staining with the vital stain Fixable Viability Dye eFluor™ 780, white blood cells from live cells based on side scatter and staining with anti-CD45, lymphocytes from white blood cells based on side and forward light scatter, and total T lymphocytes (tot T) from lymphocytes based on side scatter and staining with anti-CD3. Total T lymphocytes were divided into CD4^+ (TH) and CD8^+ (TC) lymphocytes based on staining with and anti-CD4 and CD8 antibodies and subsets assessed. The following observations were made on a per-mg of tumor tissue basis.

PBMC = experiment: CMV recall antigen-stimulated PBMC: IFNγ production and CFSE proliferation; format: cell-based; conditions: four days, vs vehicle control
Protocol: Peripheral blood mononuclear cells (PBMC) from a cytomegalovirus (CMV)-positive donor were labeled with carboxyfluorescein succinimidyl ester (CFSE) and stimulated with CMV recall antigens at […]. The PBMC were then treated with one of three difference RARγ selective agonists or vehicle (DMSO) control and incubated at 37° C., 5% CO2 for four days. Culture supernatant was harvested and assayed for IFNγ production and the PBMC evaluated for proliferation by flow cytometry for CFSE dilution.
CFSE is a fluorescent reactive cell membrane permeable dye. After it is taken up, CFSE covalently modifies proteins and is retained in cells for long periods of time. The CFSE-modified proteins are generally evenly divided between daughter cells at each division so that fluorescent intensity of the cells falls by have at each division. Thus diminution of the dye's fluorescent signal can be used as a measure of proliferation.

EMT6 cells [4] = experiment: EMT6 in vitro culture viability, Cell Titer Glo Assay; format: cell-based, mouse; conditions: 5 days
Protocol: EMT6 cells were cultured in vitro for 5 days the presence of a multiple concentrations of the RARγ agonists GA1E, GA2E, and GA3Ep and viability assessed by the Cell Titer Glo Assay® (Promega).

TIL in EMT6 tumors = experiment: Flow cytometry of excised EMT6 tumors (Example 4); format: in vivo, mouse
Text: At the end of the study of Example 3, the tumors were excised, the cells disaggregated and dispersed without use of proteases, stained with various agents, and subjected to flow cytometry. FIG. 5A-B present the results of the flow cytometry both as a percentage of cells and as the number of cells per tumor. […] Of these live cells, a substantial proportion were leukocytes (FIG. 5A, “CD45” panels). […] The majority of the T cells were CD4+(FIG. 5A, “CD4” panels), expected to be predominantly helper cells. Of the CD4^+ cells, only small proportions were T memory cells (expected to be predominantly TH1 memory cells) based on intracellular staining for IFNγ (FIG. 5B, “TH IFGγ” panels), TH17 cells based in intracellular staining for IL-17 (FIG. 5B, “TH IL17” panels), or Treg cell based on staining for CD25 and FoxP3 (FIG. 5B, “Treg” panels). About 25-30% of the T cells were CD8^+ (FIG. 5B, “CD8 T” panels), expected to be predominantly cytotoxic cells.

[5] = per mg tumor, vs controls, P<0.0001
[6] = per mg tumor, vs controls, P<0.001
[7] = per mg tumor, vs controls, P<0.05
[8] = per mg tumor, vs controls, P<0.05, listed as GA2
[9] = per mg tumor, vs controls, P>0.05
[10] = 10 mg/kg oral daily, end of study

## CC1(C)CCC(C)(C)c2cc(C(/C=C/c3ccc(C(=O)O)cc3F)=N/O)ccc21 [GA2E, 3-fluoro-4-((1E,3E)-3-(hydroxyimino)-3-(5,5,8,8-tetramethyl-5,6,7,8-tetrahydronaphthalen-2-yl)prop-1-en-1-yl)benzoic acid]
EMT6 cells [1]; 10 mg/kg oral daily for 17 days
  tolerability: acceptably well-tolerated
EMT6 cells [1]; 25 mg/kg group (n=10), oral daily
  mice terminated for excessive weight loss: one mouse
EMT6 cells [1]; 25 mg/kg oral daily
  inhibiting tumor growth, 25 mg/kg dosage versus 10 mg/kg dosage: somewhat more effective
EMT6 cells [1]; 25 mg/kg oral daily for 17 days
  tolerability: acceptably well-tolerated
EMT6 cells [1]; 25 mg/kg, only a short excursion
  weight loss: more than 10%
EMT6 cells [1]; 50 mg/kg oral daily (n=11)
  mice terminated for excessive weight loss: terminated for excessive weight loss not later than Day 12
EMT6 cells [1]; 50 mg/kg, limited time in the study (to Day 12)
  tumor inhibition by the 50 mg/kg dosage versus the other dosages: not clearly different
[2]
  effect on viability as concentrations exceeded 10 μM: rapidly became toxic
  effect on viability at concentrations below 1 μM: no effect
[2]; Mus musculus, Lewis lung carcinoma
  IC50: 46 µM
EMT6 cells [3]
  tumor growth inhibition: 63%
TIL in JIMT-1 tumors; JIMT-1 tumor cells, flow cytometry
  proportion of tumor cells expressing PD-L1, CD18β, CD58 (LFA-3), and Her2: did not significantly alter
TIL in JIMT-1 tumors; per mg tumor, vs controls
  concentration of T central memory CD8+ cells (CCR7+ CD45AR−) in tumor: no significant change
  concentration of T effector memory CD8+ cells (CCR7− CD45AR−) in tumor: no significant change
  concentration of naïve CD8+ cells (CCR7+ CD45AR+) in tumor: no significant change
TIL in JIMT-1 tumors; [5]
  concentration of CD8+ TIL expressing PD-1: increased
  concentration of terminally differentiated CD8+ T effector cells (CCR7− CD45AR+): substantial increase
TIL in JIMT-1 tumors; [6]
  concentration of CD8+ TIL expressing CD18β: increased
  concentration of total CD8+ lymphocytes in tumor: increased
TIL in JIMT-1 tumors; per mg tumor, vs controls, P<0.01
  concentration of CD8+ TIL expressing CD54: increased
TIL in JIMT-1 tumors; [7]
  concentration of CD4+ TIL expressing CD18β: increased
  concentration of CD4+ TIL expressing CD54: decreased
  concentration of CD4+ TIL expressing PD-1: decreased
  concentration of T central memory CD4+ cells (CCR7+ CD45AR−): decreased
  concentration of T effector memory CD4+ cells (CCR7− CD45AR−): decreased
  concentration of naïve CD4+ cells (CCR7+ CD45AR+): decreased
  concentration of total CD4+ lymphocytes in tumor: decreased
TIL in JIMT-1 tumors; [8]
  concentration of CD4+ TIL expressing CD54: increased
  concentration of CD4+ TIL expressing PD-1: increased
TIL in JIMT-1 tumors; [9]
  concentration of CD4+ TIL expressing FoxP3: increased
  concentration of terminally differentiated CD4+ T effector cells (CCR7− CD45AR+): decreased
PBMC; 0.1 to 1000 nM
  IFNγ production: increased IFNγ production substantially
PBMC; increase small
  Proliferation of CD8+ cells (CFSE dilution): increased
EMT6 cells [4]
  effect on viability as concentrations exceeded 10 μM: rapidly became toxic
  effect on viability at concentrations below 1 μM: no effect
EMT6 cells [4]; Mus musculus, 120 h
  IC50: 19 µM
TIL in EMT6 tumors; [10]
  T cells (anti-CD3) as mean percentage of the leukocytes in the tumor: about 30%
  number of TIL: increased
TIL in EMT6 tumors; vs vehicle control, did not achieve statistical significance
  proportion of CD8+ T cells that were memory cells (intracellular IFNγ): numerically increased
